The target in data set [1] is T1, Bile acid receptor (Homo sapiens) (UniProt Q96RI1).
T1 sequence (whole entry): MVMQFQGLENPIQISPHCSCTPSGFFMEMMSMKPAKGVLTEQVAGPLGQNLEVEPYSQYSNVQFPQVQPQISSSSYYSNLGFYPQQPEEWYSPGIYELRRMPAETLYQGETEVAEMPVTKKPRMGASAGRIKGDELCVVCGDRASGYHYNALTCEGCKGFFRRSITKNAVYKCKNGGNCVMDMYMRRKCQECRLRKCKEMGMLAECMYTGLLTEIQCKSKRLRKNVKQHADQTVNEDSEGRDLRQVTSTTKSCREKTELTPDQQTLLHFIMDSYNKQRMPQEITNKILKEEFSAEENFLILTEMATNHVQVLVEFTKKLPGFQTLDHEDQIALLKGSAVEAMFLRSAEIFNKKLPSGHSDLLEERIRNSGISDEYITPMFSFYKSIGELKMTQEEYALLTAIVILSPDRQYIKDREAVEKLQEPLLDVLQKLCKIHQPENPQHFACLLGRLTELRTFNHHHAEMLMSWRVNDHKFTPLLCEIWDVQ
Put plainly: Antagonist activity at human Gal4-fused FXR assessed as inhibition of chenodeoxycholic acid-induced luciferase activity at 0.03 to 10 uM by reporter gene assay. Type of data set: functional. For orientation: A reporter such as luciferase makes a cellular process visible.

Data set [2] addresses T2, Peroxisome proliferator-activated receptor gamma (Homo sapiens) (UniProt P37231).
T2 sequence (whole entry): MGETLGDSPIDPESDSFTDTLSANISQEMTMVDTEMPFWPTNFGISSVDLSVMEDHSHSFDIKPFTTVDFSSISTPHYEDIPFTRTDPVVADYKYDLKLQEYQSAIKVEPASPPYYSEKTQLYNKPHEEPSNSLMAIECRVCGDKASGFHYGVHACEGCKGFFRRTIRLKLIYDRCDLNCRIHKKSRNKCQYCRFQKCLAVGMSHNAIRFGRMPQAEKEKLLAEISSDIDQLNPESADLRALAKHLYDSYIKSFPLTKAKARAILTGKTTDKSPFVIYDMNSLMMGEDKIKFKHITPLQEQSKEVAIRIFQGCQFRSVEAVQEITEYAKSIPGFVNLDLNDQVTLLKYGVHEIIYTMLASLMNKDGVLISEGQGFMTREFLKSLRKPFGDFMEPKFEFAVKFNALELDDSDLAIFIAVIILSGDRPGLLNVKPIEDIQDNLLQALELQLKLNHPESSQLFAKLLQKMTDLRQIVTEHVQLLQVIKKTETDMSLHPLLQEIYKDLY
Nature of the data set: Antagonist activity at human Gal4-fused PPARgamma assessed as inhibition of ciglitazone-induced luciferase activity at 0.1 to 10 uM by reporter gene assay. It counts as functional.

Data set [3] addresses T3, Oxysterols receptor LXR-alpha (Homo sapiens, UniProt Q13133).
T3 sequence (Q13133 whole entry): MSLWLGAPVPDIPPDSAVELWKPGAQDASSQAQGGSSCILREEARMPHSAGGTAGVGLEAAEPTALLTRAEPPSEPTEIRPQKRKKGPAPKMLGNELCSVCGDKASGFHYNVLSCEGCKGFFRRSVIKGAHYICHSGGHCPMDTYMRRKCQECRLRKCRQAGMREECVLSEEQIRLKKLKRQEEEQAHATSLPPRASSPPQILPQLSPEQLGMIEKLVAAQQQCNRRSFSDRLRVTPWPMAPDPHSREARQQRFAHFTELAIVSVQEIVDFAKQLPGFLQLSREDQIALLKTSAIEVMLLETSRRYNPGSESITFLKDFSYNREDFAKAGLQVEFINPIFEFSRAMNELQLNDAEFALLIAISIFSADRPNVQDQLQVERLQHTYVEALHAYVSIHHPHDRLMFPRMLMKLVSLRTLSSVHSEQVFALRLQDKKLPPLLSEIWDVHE
Nature of the data set: Transactivational agonist activity at human LXRalpha transfected in HEK293 cells expressing CMX-Gal4N assessed as luciferase activity at 30 uM after 16 hrs by reporter gene assay. As to conditions: hek293, 16 h. Type of data set: cell-based.

Data on one compound can be found in ChEMBL document CHEMBL2169742, “Design, synthesis, and biological evaluation of novel transrepression-selective liver X receptor (LXR) ligands with 5,11-dihydro-5-methyl-11-methylene-6H-dibenz[b,e]azepin-6-one skeleton” (J Med Chem, 2012).

Activity calls are given as the source filed them. No cut-off for these calls is given here.

Take `C=C1c2ccccc2C(=O)N(C)c2ccc(CC)cc21`: the inhibition result in data set [1] and in data set [2] was “inactive” throughout. Moreover, in data set [3], the Activity entry is on record as “Not Active”.
